From patent US11529338B2, “Compositions and methods for treating cancer” (Cedars-Sinai Medical Center, priority 2017, dated 2022)

Molecular target: T1, OC2-HOX (Homo sapiens, UniProt O95948)
T1 sequence (O95948 426-485 limits assumed): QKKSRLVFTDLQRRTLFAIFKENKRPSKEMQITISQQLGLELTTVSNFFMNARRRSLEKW
Assay: Binding to OC2-HOX measured by surface plasmon resonance
Conditions: based on 2:2 Langmuir model simulation of the bimolecular interactions, read-out: binding affinity KD
Description: FIG. 12A-FIG. 12C depicts in accordance with various embodiments of the invention, CSRM617 derivatives. FIG. 12A depicts chemical structures of CSRM617 derivatives CSRM123 and CSRM843. FIG. 12B depicts dose-dependent binding of CSRM123 and CSRM843 to OC2-HOX, measured by surface plasmon resonance, is shown. […] FIG. 12C depicts IC50 values for compounds CSRM617, CSRM123 and CSRM843 in 22Rv1 and DU145 cell lines.

Row | Kd [nM] | SMILES
1 | 1150 | NC(=O)C1CCCCN1C(=O)NCCc1ccc(O)c(O)c1O (centres unmarked) [CSRM123]
2 | 118 | O=C(CNC(=O)Cc1ccc(O)c(O)c1O)NO [CSRM843]
